In patent US10688200B2, “Urea-based prostate specific membrane antigen (PSMA) inhibitors for imaging and therapy” (Five Eleven Pharma Inc., priority 2015, dated 2020):

How the values were obtained:
[1] = system: LNCaP tumor bearing nude mice; experiment: Biodistribution of [68Ga]labeled ligand in PSMA positive tumor bearing nude mice; assay type: in vivo, mouse; conditions: 1 h post-injection, i.v., n = 3
Description: In a dish contained 5×10^6 cells of LNCaP in 50% Matrigel (Becton Dickinson, Heidelberg, Germany) were subcutaneously inoculated into the left shoulder of male 5- to 6-week-old CD-1 nu/nu mice (Charles River Laboratories). The tumors were allowed to grow for 8 weeks until approximately 0.5 cm^3 in size.
The ^68Ga-radiolabeled compounds were injected via tail vein (25 μCi per mouse; 0.1-0.2 nmol). At 1 h after injection, the animals were sacrificed. Organs of interest were dissected and weighed. The radioactivity was measured with a gamma counter and calculated as % ID/g.

[2] = system: PSMA-expressing LNCaP cells; experiment: Cell binding and internalization; assay type: cell-based, human; conditions: for Cell surface binding activity / Internalized activity: 37° C.
Description: The cellular uptake and internalization kinetics of the [^68Ga]1a, [^68Ga]5a and [^68Ga]5b were determined using PSMA-expressing LNCaP cells. Furthermore, to be able to discriminate between total cellular activity (sum of membrane-associated and internalized activity) and internalized activity, all incubations were followed by a washing step with mild acid at 4° C. to remove specifically cell-surface bound radioligand by displacement.
LNCaP cells (in 6-well plates in triplicates) were incubated in RPMI-1640 medium with [^68Ga]1a, [^68Ga]5a or [^68Ga]5b for 0-2 h at 37° C. At the indicated time, the medium was removed and the cells were washed twice and then incubated with a mild acid buffer (50 mM glycine, 150 mM NaCl, pH 3.0) at 4° C. for 5 min. The supernatant (containing cell surface-bound radioactivity) was pooled and the cell pellet (containing internalized radioactivity) was collected with filter paper and then radioactivity in supernatant and cell pellet was counted on a gamma counter.
LNCaP cells were incubated with [^68Ga]1a, [^68Ga]5a and [^68Ga]5b for up to 2 h at 37° C. to determine whether the compound is internalized by endocytosis. The cells were then washed with a mild acid buffer to remove extracellularly bound compound.
Non specific binding (NSB) was evaluated by blocking with 20 μM PMPA. Specificity of cell uptake (SB) was calculated by subtracting the respective signals resulting from PMPA blocking. Values are expressed as % of applied radioactivity bound to 10^6 cells.

[3] = Biodistribution of radiotracers in normal mice; assay type: in vivo, mouse; conditions: for Biodistribution: Blood / Biodistribution: Bone / Biodistribution: Brain / Biodistribution: Heart / Biodistribution: Kidney / Biodistribution: Liver / Biodistribution: Lung / Biodistribution: Muscle / Biodistribution: Pancreas / Biodistribution: Skin / Biodistribution: Spleen: normal male mice
Procedure, shortened: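 Male CD-1 mice received 35 μCi [^68Ga] radiotracer (0.2 nmole ligand) by tail vein. Four mice per time point sacrificed at 2, 30, 60 and 120 min p.i.; organs and blood weighed and gamma counted. %ID/g calculated against a standard dilution of the dose, decay-corrected.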

[4] = system: LNCaP PSMA+ and PC-3 PSMA− tumor bearing mice; experiment: Small animal microPET imaging of [68Ga]5b in tumor bearing nude mice; assay type: in vivo, mouse
Description: This study was performed in a small animal imaging facility Male CD-1-nu/nu mice were implanted subcutaneously with 5×10^6 LNCaP cells and PC-3 cells. When the tumors reached approximately 5-10 mm in diameter, the mice were used for microPET imaging. Mice bearing LNCaP tumor and PC-3 tumors were injected via the tail vein with ˜0.5 mCi of [^68Ga]5b. Imaging studies were carried out under general anesthesia of the animals, induced with inhalation of […] and maintained with inhalation of […] isoflurane in 30% oxygen/air. Animals were positioned prone in the scanner. Whole body scan was performed for 15 min from 60 min post-injection of radiotracers. PET images were generated using the AMIDE software. MicroPET images obtained in LNCaP and PC-3 tumor xenografts from 60 min to 75 min after injection of [^68Ga]5b are shown in FIGS. 5A-5C.

[5] = 60 min to 75 min after injection

## O=C(O)CCc1ccc2c(c1)C[N+]13CC[N+]45CC(=O)[O][68Ga-3]14([O]C(=O)C3)([O]2)[O]c1ccc(CCC(=O)NCC(=O)N[C@@H](Cc2ccc(OCC(=O)N[C@@H](Cc3ccccc3)C(=O)NCCCC[C@H](NC(=O)N[C@@H](CCC(=O)O)C(=O)O)C(=O)O)cc2)C(=O)O)cc1C5 (some centres unmarked) [[^68Ga]5b]
[1]
  Organ distribution: Blood: 0.46 ± 0.04 % dose/g
  Organ distribution: Bone: 0.27 ± 0.07 % dose/g
  Organ distribution: Brain: 0.05 ± 0.01 % dose/g
  Organ distribution: Heart: 0.51 ± 0.12 % dose/g
  Organ distribution: Liver: 0.78 ± 0.09 % dose/g
  Organ distribution: Lung: 2.27 ± 0.37 % dose/g
  Organ distribution: Muscle: 0.34 ± 0.07 % dose/g
  Organ distribution: Pancreas: 0.97 ± 0.23 % dose/g
  Organ distribution: Skin: 1.16 ± 0.57 % dose/g
  Organ distribution: Spleen: 11.09 ± 3.35 % dose/g
[2]; 5 min
  Cell surface binding activity: 2.50 ± 0.79 % ID/10^6 cells
  Internalized activity: 1.58 ± 0.30 % ID/10^6 cells
[2]; 15 min
  Cell surface binding activity: 2.87 ± 0.10 % ID/10^6 cells
  Internalized activity: 4.08 ± 0.01 % ID/10^6 cells
[2]; 30 min
  Cell surface binding activity: 3.54 ± 0.62 % ID/10^6 cells
  Internalized activity: 8.29 ± 0.54 % ID/10^6 cells
[2]; 60 min
  Cell surface binding activity: 3.74 ± 0.33 % ID/10^6 cells
  Internalized activity: 12.5 ± 0.46 % ID/10^6 cells
[2]; 90 min
  Cell surface binding activity: 5.03 ± 0.41 % ID/10^6 cells
  Internalized activity: 20.0 ± 2.54 % ID/10^6 cells
[2]; 120 min
  Cell surface binding activity: 4.69 ± 0.45 % ID/10^6 cells
  Internalized activity: 18.9 ± 1.61 % ID/10^6 cells
[2]; blocking with 20 μM PMPA, FIG. 4
  Non specific binding (NSB) in LNCaP cell uptake, in words: extremely low
[2]; up to 2 h at 37° C.
  Internalized activity, comparison in words: much higher than those of [^68Ga]1a and [^68Ga]5a
[3]; normal CD-1 male mice
  Clearance from organs, in words: cleared quickly and well except kidneys and spleen
[3]; normal CD-1 male mice, 2 min
  Biodistribution: Body leftover: 2.30 ± 0.05 % dose/g
  Biodistribution: Fat: 2.08 ± 0.27 % dose/g
  Biodistribution: Large intestine: 1.20 ± 0.20 % dose/g
  Biodistribution: Seminal vesicles: 1.47 ± 0.25 % dose/g
  Biodistribution: Small intestine: 2.46 ± 0.15 % dose/g
  Biodistribution: Stomach: 0.81 ± 0.29 % dose/g
  Biodistribution: Tail: 8.08 ± 0.78 % dose/g
  Biodistribution: Testes: 0.96 ± 0.15 % dose/g
[3]; normal CD-1 male mice, 30 min
  Biodistribution: Body leftover: 0.98 ± 0.05 % dose/g
  Biodistribution: Fat: 1.45 ± 0.13 % dose/g
  Biodistribution: Large intestine: 0.37 ± 0.04 % dose/g
  Biodistribution: Seminal vesicles: 1.13 ± 0.19 % dose/g
  Biodistribution: Small intestine: 1.03 ± 0.07 % dose/g
  Biodistribution: Stomach: 0.31 ± 0.07 % dose/g
  Biodistribution: Tail: 2.92 ± 0.95 % dose/g
  Biodistribution: Testes: 1.14 ± 0.21 % dose/g
[3]; normal CD-1 male mice, 60 min
  Biodistribution: Body leftover: 0.52 ± 0.11 % dose/g
  Biodistribution: Fat: 0.73 ± 0.11 % dose/g
  Biodistribution: Large intestine: 0.31 ± 0.21 % dose/g
  Biodistribution: Seminal vesicles: 0.94 ± 0.22 % dose/g
  Biodistribution: Small intestine: 0.74 ± 0.17 % dose/g
  Biodistribution: Stomach: 0.17 ± 0.06 % dose/g
  Biodistribution: Tail: 1.73 ± 0.55 % dose/g
  Biodistribution: Testes: 0.82 ± 0.06 % dose/g
[3]; normal CD-1 male mice, 120 min
  Biodistribution: Body leftover: 0.27 ± 0.01 % dose/g
  Biodistribution: Fat: 0.35 ± 0.04 % dose/g
  Biodistribution: Large intestine: 0.54 ± 0.16 % dose/g
  Biodistribution: Seminal vesicles: 0.64 ± 0.10 % dose/g
  Biodistribution: Small intestine: 0.45 ± 0.12 % dose/g
  Biodistribution: Stomach: 0.22 ± 0.05 % dose/g
  Biodistribution: Tail: 0.55 ± 0.04 % dose/g
  Biodistribution: Testes: 0.68 ± 0.06 % dose/g
[3]; 2 min
  Biodistribution: Blood: 7.94 ± 0.52 % dose/g
  Biodistribution: Bone: 2.16 ± 0.11 % dose/g
  Biodistribution: Brain: 0.19 ± 0.02 % dose/g
  Biodistribution: Heart: 4.33 ± 0.11 % dose/g
  Biodistribution: Kidney: 50.32 ± 3.31 % dose/g
  Biodistribution: Liver: 2.97 ± 0.24 % dose/g
  Biodistribution: Lung: 5.75 ± 0.26 % dose/g
  Biodistribution: Muscle: 1.97 ± 0.16 % dose/g
  Biodistribution: Pancreas: 2.18 ± 0.04 % dose/g
  Biodistribution: Skin: 2.38 ± 0.10 % dose/g
  Biodistribution: Spleen: 3.86 ± 0.57 % dose/g
[3]; 30 min
  Biodistribution: Blood: 1.13 ± 0.13 % dose/g
  Biodistribution: Bone: 0.60 ± 0.02 % dose/g
  Biodistribution: Brain: 0.05 ± 0.01 % dose/g
  Biodistribution: Heart: 0.98 ± 0.06 % dose/g
  Biodistribution: Kidney: 73.96 ± 5.56 % dose/g
  Biodistribution: Liver: 0.95 ± 0.11 % dose/g
  Biodistribution: Lung: 2.63 ± 0.08 % dose/g
  Biodistribution: Muscle: 0.67 ± 0.05 % dose/g
  Biodistribution: Pancreas: 0.80 ± 0.09 % dose/g
  Biodistribution: Skin: 1.14 ± 0.15 % dose/g
  Biodistribution: Spleen: 1.70 ± 0.44 % dose/g
[3]; 60 min
  Biodistribution: Blood: 0.48 ± 0.11 % dose/g
  Biodistribution: Bone: 0.38 ± 0.04 % dose/g
  Biodistribution: Brain: 0.03 ± 0.00 % dose/g
  Biodistribution: Heart: 0.40 ± 0.09 % dose/g
  Biodistribution: Kidney: 62.77 ± 12.55 % dose/g
  Biodistribution: Liver: 0.54 ± 0.09 % dose/g
  Biodistribution: Lung: 1.28 ± 0.31 % dose/g
  Biodistribution: Muscle: 0.31 ± 0.07 % dose/g
  Biodistribution: Pancreas: 0.52 ± 0.02 % dose/g
  Biodistribution: Skin: 0.58 ± 0.19 % dose/g
  Biodistribution: Spleen: 1.71 ± 0.66 % dose/g
[3]; 120 min
  Biodistribution: Blood: 0.27 ± 0.07 % dose/g
  Biodistribution: Bone: 0.26 ± 0.01 % dose/g
  Biodistribution: Brain: 0.02 ± 0.00 % dose/g
  Biodistribution: Heart: 0.22 ± 0.06 % dose/g
  Biodistribution: Kidney: 49.00 ± 4.76 % dose/g
  Biodistribution: Liver: 0.37 ± 0.06 % dose/g
  Biodistribution: Lung: 0.61 ± 0.07 % dose/g
  Biodistribution: Muscle: 0.16 ± 0.01 % dose/g
  Biodistribution: Pancreas: 0.32 ± 0.02 % dose/g
  Biodistribution: Skin: 0.26 ± 0.02 % dose/g
  Biodistribution: Spleen: 1.39 ± 0.38 % dose/g
[4]; 2-PMPA 2 mg/kg co-injected
  Binding in LNCaP tumor and kidney with 2-PMPA co-injection, in words: binding was abolished in the LNCaP tumor and kidney tissue
[4]; [5]
  PC-3 (PSMA negative) tumor uptake in microPET, in words: did not show any uptakes
  Uptake in microPET images, in words: uptake was seen only in the kidneys, bladder and PSMA positive LNCaP tumor
